Patent US12251387B2, “Substituted quinoxalines and benzo[c][1,2,5]oxadiazoles as DNA-PK inhibitors” (Vertex Pharmaceuticals Incorporated, priority 2013, dated 2025)

These compounds were tested against DNA-PK (Homo sapiens, UniProt P78527) (assay: DNA-PK Inhibition Assay (standard radiometric kinase assay, 33P-ATP, peptide substrate)). Details: radiometric assay, approximately 6 nM DNA-PK, 100 μM ATP, 45 min; fit to competitive tight-binding inhibition; read-out: Ki for the inhibition of DNA-PK.
Type: biochemical
How it was run: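 Radiometric transfer of 33P from ATP (100 μM) to peptide substrate (0.8 mg/mL) by about 6 nM DNA-PK with 10 μg/mL sheared dsDNA, pH 7.5 HEPES/MgCl2, 45 min, phosphoric acid quench, filter capture and scintillation counting. Ki fitted to a competitive tight-binding inhibition model.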

Compound | Ki [nM]
Cc1cnc(N[C@H]2CC[C@@H](Oc3cc(N4CCOCC4)cc4nccnc34)CC2)c(C)c1 [Compound 595] | < 100
Nc1nccc(N[C@H]2CC[C@@H](Oc3cc(N4CCOCC4)cc4nccnc34)CC2)n1 [Compound 397] | < 100
c1cnc2c(O[C@H]3CC[C@@H](Nc4ncc(CN5CCOCC5)cn4)CC3)cc(N3CCOCC3)cc2n1 [Compound 530] | < 100
O=C(O)c1cc(N[C@H]2CC[C@@H](Oc3cc(N4CCOCC4)cc4nccnc34)CC2)ccc1F [Compound 420] | < 100
Fc1c[nH]c2ncnc(N[C@H]3CC[C@@H](Oc4cc(N5CCOCC5)cc5nccnc45)CC3)c12 [Compound 437] | < 100
c1cnc2c(O[C@H]3CC[C@@H](Nc4ncc(CCN5CCCCC5)cn4)CC3)cc(N3CCOCC3)cc2n1 [Compound 433] | < 100
CC(C)(C)OC(=O)c1cc(N[C@H]2CC[C@@H](Oc3cc(N4CCOCC4)cc4nccnc34)CC2)ccc1F [Compound 421] | < 100
Fc1cccnc1N[C@H]1CC[C@@H](Oc2cc(N3CCOCC3)cc3nccnc23)CC1 [Compound 591] | < 100
c1cnc2c(O[C@H]3CC[C@@H](Nc4ncc(OCCCN5CCCCC5)cn4)CC3)cc(N3CCOCC3)cc2n1 [Compound 507] | < 100
COCCNc1ncnc(N[C@H]2CC[C@@H](Oc3cc(N4CCOCC4)cc4nccnc34)CC2)c1F [Compound 382] | < 100
O=C(O)c1cccc(N[C@H]2CC[C@@H](Oc3cc(N4CCOCC4)cc4nccnc34)CC2)n1 [Compound 419] | < 100
Cc1nc(N[C@H]2CC[C@@H](Oc3cc(N4CCOCC4)cc4nccnc34)CC2)ncc1F [Compound 476] | < 100
Cc1cc(N[C@H]2CC[C@@H](Oc3cc(N4CCOCC4)cc4nccnc34)CC2)n[nH]c1=O [Compound 599] | < 100
c1cnc2c(O[C@H]3CC[C@@H](Nc4ncc5occc5n4)CC3)cc(N3CCOCC3)cc2n1 [Compound 563] | < 100
COc1cncc(NC[C@H]2CC[C@@H](Oc3cc(N4CCOCC4)cc4nccnc34)CC2)c1 [Compound 347] | < 100
Fc1nc(N[C@H]2CC[C@@H](Oc3cc(N4CCOCC4)cc4nccnc34)CC2)c2nc[nH]c2n1 [Compound 521] | < 100
CC(C)(C)NC(=O)N[C@H]1CC[C@@H](Oc2cc(N3CCOCC3)cc3nccnc23)CC1 [Compound 425] | < 100
CC(C)(O)c1ccnc(N[C@H]2CC[C@@H](Oc3cc(N4CCOCC4)cc4nccnc34)CC2)c1 [Compound 573] | < 100
FC(F)(F)c1cncc(N[C@H]2CC[C@@H](Oc3cc(N4CCOCC4)cc4nccnc34)CC2)c1 [Compound 429] | < 100
FC(F)(F)c1ncc(N[C@H]2CC[C@@H](Oc3cc(N4CCOCC4)cc4nccnc34)CC2)cn1 [Compound 428] | < 100
c1cnc2c(O[C@H]3CC[C@@H](Nc4ncnc5[nH]cnc45)CC3)cc(N3CCOCC3)cc2n1 [Compound 516] | < 100
c1cc(C2CC2)nc(N[C@H]2CC[C@@H](Oc3cc(N4CCOCC4)cc4nccnc34)CC2)n1 [Compound 455] | < 100
Cc1nccc(N[C@H]2C[C@@H](Oc3cc(N4CCOCC4)cc4nccnc34)C2)n1 [Compound 357] | < 100
c1cnc2c(O[C@H]3CC[C@@H](Nc4ncnc5cc[nH]c45)CC3)cc(N3CCOCC3)cc2n1 [Compound 517] | < 100

Compound | Ki [nM]
CN1CCN(CCOc2cc(N[C@H]3CC[C@@H](Oc4cc(N5CCOCC5)cc5nccnc45)CC3)ncn2)CC1 [Compound 562] | < 100
CC(C)(O)c1ncc(N[C@H]2CC[C@@H](Oc3cc(N4CCOCC4)cc4nccnc34)CC2)cn1 [Compound 341] | < 100
CC(C)(O)c1ccc(N[C@H]2CC[C@@H](Oc3cc(N4CCOCC4)cc4nccnc34)CC2)nc1 [Compound 281] | < 100
Fc1c(NC2CCOCC2)ncnc1N[C@H]1CC[C@@H](Oc2cc(N3CCOCC3)cc3nccnc23)CC1 [Compound 378] | < 100
CSc1nc(N[C@H]2CC[C@@H](Oc3cc(N4CCOCC4)cc4nccnc34)CC2)cs1 [Compound 628] | < 100
CN1CCc2c(N[C@H]3CC[C@@H](Oc4cc(N5CCOCC5)cc5nccnc45)CC3)ncnc21 [Compound 473] | < 100
Clc1nc(N[C@H]2CC[C@@H](Oc3cc(N4CCOCC4)cc4nccnc34)CC2)nc2cc[nH]c12 [Compound 514] | < 100
Cn1nc(N[C@H]2CC[C@@H](Oc3cc(N4CCOCC4)cc4nccnc34)CC2)ccc1=O [Compound 578] | < 100
c1cc(-c2cnc(N[C@H]3CC[C@@H](Oc4cc(N5CCOCC5)cc5nccnc45)CC3)nc2)[nH]n1 [Compound 462] | < 100
c1cnc2c(O[C@H]3CC[C@@H](Nc4cncc5nccn45)CC3)cc(N3CCOCC3)cc2n1 [Compound 336] | < 100
c1cnc2c(O[C@H]3C[C@@H](Nc4ncc5c(n4)COC5)C3)cc(N3CCOCC3)cc2n1 [Compound 355] | < 100
COc1cc(N[C@H]2CC[C@@H](Oc3cc(N4CCOCC4)cc4nccnc34)CC2)nc(C)n1 [Compound 659] | < 100
c1nc(N[C@H]2CC[C@@H](Oc3cc(N4CCOCC4)cc4nccnc34)CC2)cc(-c2nnco2)n1 [Compound 566] | < 100
Cc1cccc(N[C@H]2CC[C@@H](Oc3cc(N4CCOCC4)cc4nccnc34)CC2)n1 [Compound 623] | < 100
Oc1nccc(N[C@H]2CC[C@@H](Oc3cc(N4CCOCC4)cc4nccnc34)CC2)n1 [Compound 280] | < 100
Cc1cnc(N[C@H]2CC[C@@H](Oc3cc(N4CCOCC4)cc4nccnc34)CC2)c(C)n1 [Compound 323] | < 100
CN1CCN(c2ccnc(N[C@H]3CC[C@@H](Oc4cc(N5CCOCC5)cc5nccnc45)CC3)n2)CC1 [Compound 547] | < 100
c1cn2ccnc2c(N[C@H]2CC[C@@H](Oc3cc(N4CCOCC4)cc4nccnc34)CC2)n1 [Compound 372] | < 100
Cc1cncc(N[C@H]2CC[C@@H](Oc3cc(N4CCOCC4)cc4nccnc34)CC2)c1 [Compound 465] | < 100
Cc1nc(C)c(F)c(N[C@H]2CC[C@@H](Oc3cc(N4CCOCC4)cc4nccnc34)CC2)n1 [Compound 463] | < 100
c1cc(N[C@H]2CC[C@@H](Oc3cc(N4CCOCC4)cc4nccnc34)CC2)nc(N2CCOCC2)n1 [Compound 534] | < 100
CCc1cc(N[C@H]2CC[C@@H](Oc3cc(N4CCOCC4)cc4nccnc34)CC2)ncn1 [Compound 651] | < 100
CNC(=O)c1cc(N[C@H]2CC[C@@H](Oc3cc(C4=CCOCC4)cc4nccnc34)CC2)ncn1 [Compound 321] | < 100
CN1CC[C@H](Nc2ncnc(N[C@H]3CC[C@@H](Oc4cc(N5CCOCC5)cc5nccnc45)CC3)c2F)C1 [Compound 343] | < 100

Compound | Ki [nM]
CN1CCN(c2cc(N[C@H]3CC[C@@H](Oc4cc(N5CCOCC5)cc5nccnc45)CC3)ncn2)CC1 [Compound 537] | < 100
Fc1cncnc1N[C@H]1CC[C@@H](Oc2cc(N3CCOCC3)cc3nccnc23)CC1 [Compound 531] | < 100
c1cnc2c(O[C@H]3CC[C@@H](Nc4ccc(OCCN5CCOCC5)cn4)CC3)cc(N3CCOCC3)cc2n1 [Compound 639] | < 100
COc1ccnc(N[C@H]2CC[C@@H](Oc3cc(N4CCOCC4)cc4nccnc34)CC2)c1 [Compound 627] | < 100
CN(C)Cc1ccnc(N[C@H]2CC[C@@H](Oc3cc(N4CCOCC4)cc4nccnc34)CC2)n1 [Compound 483] | < 100
Cc1noc(-c2ccc(N[C@H]3CC[C@@H](Oc4cc(N5CCOCC5)cc5nccnc45)CC3)nc2)n1 [Compound 278] | < 100
COc1nc(N[C@H]2CC[C@@H](Oc3cc(N4CCOCC4)cc4nccnc34)CC2)c2cc[nH]c2n1 [Compound 383] | < 100
CN1CCC[C@H]1CNc1ncnc(N[C@H]2CC[C@@H](Oc3cc(N4CCOCC4)cc4nccnc34)CC2)c1F [Compound 359] | < 100
CN1CCN(Cc2cnc(N[C@H]3CC[C@@H](Oc4cc(N5CCOCC5)cc5nccnc45)CC3)nc2)CC1 [Compound 497] | < 100
OC1CCN(c2cc(N[C@H]3CC[C@@H](Oc4cc(N5CCOCC5)cc5nccnc45)CC3)ncn2)CC1 [Compound 492] | < 100
c1cc(C2CCNCC2)nc(N[C@H]2CC[C@@H](Oc3cc(N4CCOCC4)cc4nccnc34)CC2)n1 [Compound 551] | < 100
Cc1ncnc(N[C@H]2CC[C@@H](Oc3cc(N4CCOCC4)cc4nccnc34)CC2)c1C [Compound 491] | < 100
c1cnc(O[C@H]2CC[C@H](Oc3cc(N4CCOCC4)cc4nccnc34)CC2)nc1 [Compound 34, 4-(8-(((trans)-4-(pyrimidin-2-yloxy)cyclohexyl)oxy)quinoxalin-6-yl)morpholine] | < 100
c1cc(N[C@H]2CC[C@@H](Oc3cc(N4CCOCC4)cc4nccnc34)CC2)nc(N2CCOCC2)c1 [Compound 590] | < 100
Fc1cccc(N[C@H]2CC[C@@H](Oc3cc(N4CCOCC4)cc4nccnc34)CC2)n1 [Compound 614] | < 100
Cc1cnc(C)c(N[C@H]2CC[C@@H](Oc3cc(N4CCOCC4)cc4nccnc34)CC2)c1 [Compound 441] | < 100
Cc1nc(N[C@H]2CC[C@@H](Oc3cc(N4CCOCC4)cc4nccnc34)CC2)c2occc2n1 [Compound 435] | < 100
Cc1cncnc1N[C@H]1CC[C@@H](Oc2cc(N3CCOCC3)cc3nccnc23)CC1 [Compound 471] | < 100
COc1c(Cl)ncnc1N[C@H]1CC[C@@H](Oc2cc(N3CCOCC3)cc3nccnc23)CC1 [Compound 402] | < 100
Cc1ncc(N[C@H]2CC[C@@H](Oc3cc(N4CCOCC4)cc4nccnc34)CC2)c(C)n1 [Compound 449] | < 100
Cc1cc2nc(N[C@H]3CC[C@@H](Oc4cc(N5CCOCC5)cc5nccnc45)CC3)cc(=O)n2o1 [Compound 596] | < 100
c1cnc2c(O[C@H]3CC[C@@H](Nc4ncnc5[nH]ccc45)CC3)cc(N3CCOCC3)cc2n1 [Compound 515] | < 100
